Where “and” joins values, the source holds several entries; their conditions need not be identical. Equal values may be shown once. Toxic doses and inconclusive results are not listed.
System: BDF1 mice, P388 leukemia ip, median survival T/C
Experiment: NCI In Vivo Anticancer Drug Screen. Data for tumor model P388 Leukemia (intraperitoneal) in B6D2F1 (BDF1) mice
Details: endpoint: median survival time, higher = longer survival
Summary of the method: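 Read-out is survival of treated animals expressed relative to the vehicle group, as a T/C ratio.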

[1] = dose: 25.0 mg/kg/injection, schedule: Q01DX009 (ip), vehicle: water
[2] = dose: 50.0 mg/kg/injection, schedule: Q01DX009 (ip), vehicle: water
[3] = dose: 50.0 mg/kg/injection, schedule: Q04DX003 (ip), vehicle: water
[4] = dose: 100.0 mg/kg/injection, schedule: Q01DX009 (ip), vehicle: water
[5] = dose: 200.0 mg/kg/injection, schedule: Q01DX009 (ip), vehicle: water
[6] = dose: 25.0 mg/kg/injection, schedule: Q04DX003 (ip), vehicle: saline
[7] = dose: 100.0 mg/kg/injection, schedule: Q04DX003 (ip), vehicle: saline
[8] = dose: 100.0 mg/kg/injection, schedule: Q01DX009 (ip), vehicle: saline
[9] = dose: 100.0 mg/kg/injection, schedule: Q04DX003 (ip), vehicle: Klucel (hydroxypropylcellulose) (HPC)
[10] = dose: 200.0 mg/kg/injection, schedule: Q01DX009 (ip), vehicle: saline
[11] = dose: 200.0 mg/kg/injection, schedule: Q04DX003 (ip), vehicle: Klucel (hydroxypropylcellulose) (HPC)
[12] = dose: 400.0 mg/kg/injection, schedule: Q01DX009 (ip), vehicle: saline
[13] = dose: 400.0 mg/kg/injection, schedule: Q04DX003 (ip), vehicle: Klucel (hydroxypropylcellulose) (HPC)
[14] = dose: 100.0 mg/kg/injection, schedule: Q04DX003 (ip), vehicle: saline with Tween-80
[15] = dose: 400.0 mg/kg/injection, schedule: Q04DX003 (ip), vehicle: saline with Tween-80
[16] = dose: 12.5 mg/kg/injection, schedule: Q04DX003 (ip), vehicle: saline with Tween-80
[17] = dose: 25.0 mg/kg/injection, schedule: Q04DX003 (ip), vehicle: saline with Tween-80
[18] = dose: 400.0 mg/kg/injection, schedule: Q04DX003 (ip), vehicle: saline
[19] = dose: 50.0 mg/kg/injection, schedule: Q01DX009 (ip), vehicle: saline with Tween-80
[20] = dose: 100.0 mg/kg/injection, schedule: Q01DX009 (ip), vehicle: saline with Tween-80
[21] = dose: 200.0 mg/kg/injection, schedule: Q01DX009 (ip), vehicle: saline with Tween-80
[22] = dose: 400.0 mg/kg/injection, schedule: Q01DX009 (ip), vehicle: saline with Tween-80

With NC(Cc1c[nH]c2ccccc12)C(=O)OCc1ccccc1 (stereo unspecified) the T/C (dose: 3.12 mg/kg/injection, schedule: Q01DX009 (ip), vehicle: water) was 106 % of control, the T/C (dose: 3.12 mg/kg/injection, schedule: Q04DX003 (ip), vehicle: water) was 100 % of control and the T/C (dose: 6.25 mg/kg/injection, schedule: Q01DX009 (ip), vehicle: water) was 101 % of control. The T/C (dose: 6.25 mg/kg/injection, schedule: Q04DX003 (ip), vehicle: water) was 88 % of control, the T/C (dose: 12.5 mg/kg/injection, schedule: Q01DX009 (ip), vehicle: water) was 93 % of control and the T/C (dose: 12.5 mg/kg/injection, schedule: Q04DX003 (ip), vehicle: water) was 123 % of control. For the same molecule, the T/C [1] was 97 % of control, the T/C (dose: 25.0 mg/kg/injection, schedule: Q04DX003 (ip), vehicle: water) was 108 % of control and the T/C [2] was 92 % of control. For the same molecule, the T/C [3] was 97 % of control, the T/C [4] was 101 % of control and the T/C [5] was 110 % of control.

NC(=O)c1cn(C2OC(CO)C(O)C2O)c2ncn3ccnc3c12 (stereo unspecified) was tested, and the T/C (dose: 6.25 mg/kg/injection, schedule: Q04DX003 (ip), vehicle: saline) was 118 % of control, the T/C [6] was 115 % of control and the T/C [7] was 118 % of control.

With CC(CCC(=O)NC12CC3CC(CC(C3)C1)C2)C1CCC2C3C(OC=O)CC4CC(OC=O)CCC4(C)C3CC(OC=O)C12C (stereo unspecified) the T/C (dose: 12.5 mg/kg/injection, schedule: Q04DX002 (ip), vehicle: saline with Tween-80) was 98 % of control, the T/C (dose: 25.0 mg/kg/injection, schedule: Q04DX002 (ip), vehicle: saline with Tween-80) was 100 % of control and the T/C (dose: 50.0 mg/kg/injection, schedule: Q04DX002 (ip), vehicle: saline with Tween-80) was 100 % of control. For the same molecule, the T/C (dose: 200.0 mg/kg/injection, schedule: Q04DX002 (ip), vehicle: saline with Tween-80) was 88 % of control and the T/C (dose: 400.0 mg/kg/injection, schedule: Q04DX002 (ip), vehicle: saline with Tween-80) was 98 % of control.

In the case of COC(=O)c1c(C)ccc2c(O)c3c(cc12)C(=O)c1c2c(cc(O)c1C3=O)C1(C)OC(C)(O2)C(O)C(N(C)C)C1O (stereo unspecified), the T/C (dose: 70.0 mg/kg/injection, schedule: Q01DX009 (ip), vehicle: Klucel (hydroxypropylcellulose) (HPC)) is reported as 150 % of control and the T/C (dose: 140.0 mg/kg/injection, schedule: Q01DX009 (ip), vehicle: Klucel (hydroxypropylcellulose) (HPC)) is reported as 111 % of control.

CC(=O)OC1CCC2(C)C(=CCC3C2CCC2(C)C(OC(=O)c4ccccc4)CCC32)C1 (stereo unspecified) was tested, and the T/C (dose: 100.0 mg/kg/injection, schedule: Q01DX001 (ip), vehicle: Klucel (hydroxypropylcellulose) (HPC)) was 100 % of control, the T/C [8] was 110 % of control and the T/C [9] was 120 % of control. For the same molecule, the T/C (dose: 200.0 mg/kg/injection, schedule: Q01DX001 (ip), vehicle: Klucel (hydroxypropylcellulose) (HPC)) was 100 % of control, the T/C [10] was 95 % of control and the T/C [11] was 105 % of control. The T/C (dose: 400.0 mg/kg/injection, schedule: Q01DX001 (ip), vehicle: Klucel (hydroxypropylcellulose) (HPC)) was 100 % of control, the T/C [12] was 105 % of control and the T/C [13] was 110 % of control.

With IC12CC3CC(CC(C3)C1)C2 the T/C [14] was 90 % of control, the T/C (dose: 200.0 mg/kg/injection, schedule: Q04DX003 (ip), vehicle: saline with Tween-80) was 90 % of control and the T/C [15] was 86 % of control.

With Cc1ccc2c(ccc3c[n+]4ccccc4c(C)c32)c1 the T/C [16] was 113 % of control, the T/C [17] was 118 % of control and the T/C (dose: 33.0 mg/kg/injection, schedule: Q04DX003 (ip), vehicle: saline with Tween-80) was 122 % of control.

With CCOC(=O)CCN1CCCCC1 the T/C [8] was 96 % of control, the T/C [7] was 95 % of control and the T/C [10] was 89 % of control. The T/C (dose: 200.0 mg/kg/injection, schedule: Q04DX003 (ip), vehicle: saline) was 109 % of control, the T/C [12] was 107 % of control and the T/C [18] was 109 % of control.

With CN1CCN(C(=O)Cc2c[nH]c3ccccc23)CC1 the T/C (dose: 6.25 mg/kg/injection, schedule: Q01DX009 (ip), vehicle: saline with Tween-80) was 105 % of control, the T/C [16] was 111 % of control and the T/C [17] was 101 % of control. For the same molecule, the T/C [19] was 95 % of control, the T/C (dose: 50.0 mg/kg/injection, schedule: Q04DX003 (ip), vehicle: saline with Tween-80) was 104 % of control and the T/C [20] was 89 % of control. For the same molecule, the T/C [14] was 113 % of control.

COc1ccccc1C(C#N)N1CCCN(C(C#N)c2ccccc2OC)C1c1cc(Cl)cc(Cl)c1O (stereo unspecified) was tested, and the T/C [19] was 95 % of control, the T/C [20] was 98 % of control and the T/C [21] was 98 % of control. For the same molecule, the T/C [22] was 91 % of control.

For c1nc(N2CC2)c2cnn(C3CCCCO3)c2n1 (stereo unspecified), the T/C [6] was 109 % of control, the T/C (dose: 50.0 mg/kg/injection, schedule: Q04DX003 (ip), vehicle: saline) was 100 % of control and the T/C (dose: 100.0 mg/kg/injection, schedule: Q01DX009 (ip), vehicle: Klucel (hydroxypropylcellulose) (HPC)) was 95 % of control. For the same molecule, the T/C [7] was 100 % of control, the T/C (dose: 150.0 mg/kg/injection, schedule: Q04DX003 (ip), vehicle: Klucel (hydroxypropylcellulose) (HPC)) was 120 % of control and the T/C (dose: 200.0 mg/kg/injection, schedule: Q01DX009 (ip), vehicle: Klucel (hydroxypropylcellulose) (HPC)) was 116 % of control. The T/C (dose: 225.0 mg/kg/injection, schedule: Q04DX003 (ip), vehicle: Klucel (hydroxypropylcellulose) (HPC)) was 120 % of control.

In the case of COc1ccccc1NC(=O)Oc1ccc(-c2ccccc2)cc1Br, the T/C [9] is reported as 95 % of control, the T/C [11] is reported as 87 % of control and the T/C [13] is reported as 91 % of control.

With Cc1ccc(-c2c(O)c(Br)c(-c3ccc(C)cc3C)c(O)c2Br)c(C)c1 the T/C [20] was 100 % of control, the T/C [21] was 100 % of control and the T/C [22] was 100 % of control.

With CNC(=O)c1nc(C)c(C)[nH]c1=O the T/C [1] was 97 % of control, the T/C [2] was 90 % of control and the T/C [3] was 103 % of control. The T/C [4] was 99 % of control, the T/C [5] was 90 % of control and the T/C (dose: 400.0 mg/kg/injection, schedule: Q04DX003 (ip), vehicle: water) was 100 % of control.

With N=c1ccn2c(n1)OC1C(OP(=O)(O)O)C(CO)OC12 (stereo unspecified) the T/C (dose: 52.0 mg/kg/injection, schedule: Q04DX003 (ip), vehicle: saline) was 109 % of control, the T/C (dose: 118.0 mg/kg/injection, schedule: Q04DX003 (ip), vehicle: saline) was 159 % of control and the T/C (dose: 177.0 mg/kg/injection, schedule: Q04DX003 (ip), vehicle: saline) was 172 % of control and 185 % of control. The T/C (dose: 266.0 mg/kg/injection, schedule: Q04DX003 (ip), vehicle: saline with Tween-80) was 172 % of control, the T/C (dose: 266.0 mg/kg/injection, schedule: Q04DX003 (ip), vehicle: saline) was 205 % of control and the T/C [15] was 181 % of control. For the same molecule, the T/C [18] was 200 % of control, the T/C (dose: 600.0 mg/kg/injection, schedule: Q04DX003 (ip), vehicle: saline with Tween-80) was 200 % of control and the T/C (dose: 600.0 mg/kg/injection, schedule: Q04DX003 (ip), vehicle: saline) was 230 % of control.

With Cc1c[se]c(=S)s1 the T/C (dose: 25.0 mg/kg/injection, schedule: Q01DX009 (ip), vehicle: saline with Tween-80) was 101 % of control, the T/C [19] was 96 % of control and the T/C [20] was 98 % of control.

With Cc1ccc(Oc2ccc3cc[n+](C)cc3c2)cc1 the T/C (dose: 2.75 mg/kg/injection, schedule: Q01DX009 (ip), vehicle: saline) was 94 % of control, the T/C (dose: 4.12 mg/kg/injection, schedule: Q01DX009 (ip), vehicle: saline) was 105 % of control and the T/C (dose: 9.5 mg/kg/injection, schedule: Q01DX009 (ip), vehicle: saline) was 99 % of control. The T/C (dose: 12.5 mg/kg/injection, schedule: Q01DX009 (ip), vehicle: saline) was 118 % of control.

With COc1ccc2nc3c(Cl)c(Cl)c(=O)c(Cl)c-3sc2c1 the T/C (dose: 12.5 mg/kg/injection, schedule: Q01DX005 (ip), vehicle: saline with Tween-80) was 102 % of control and the T/C (dose: 25.0 mg/kg/injection, schedule: Q01DX005 (ip), vehicle: saline with Tween-80) was 88 % of control.
